Common to all, as to assay type: cell-based
In experiment [1] the test system is HIV-1 strain with RT mutation K065R. Briefly: Susceptibility of site-directed mutant strain. Conditions: SDM strain K065R. From the text: (§1) Site-directed mutant RT coding sequences were generated from a pGEM vector containing the HIV-1 clone HXB2 protease and RT coding sequence by using a QuikChange™ site-directed mutagenesis kit, and HPLC-purified primers. Plasmids were sequenced to confirm that they contained the desired mutations. Mutant viruses were created by recombination of the mutant protease-RT sequence with a protease-RT deleted HIV-1 HXB2 proviral clone^2.

In experiment [2] the test system is HIV-1 strain with RT mutation K103N. Briefly: Susceptibility of site-directed mutant strain. As to conditions: SDM strain K103N.
From the text: as §1

The test system of experiment [3] is HIV-1 strain with RT mutation M184V. Briefly: Susceptibility of site-directed mutant strain. As to conditions: SDM strain M184V.
From the text: as §1

For experiment [4], the system named is HIV-1 strain with RT mutation Y115F. Briefly: Susceptibility of site-directed mutant strain. Conditions: SDM strain Y115F.
From the text: as §1

The subject of experiment [5] is HIV-1 strain with RT mutation Y181C. Briefly: Susceptibility of site-directed mutant strain. As to conditions: SDM strain Y181C.
From the text: as §1

The subject of experiment [6] is HIV-1 strain with RT mutation Y188L. Briefly: Susceptibility of site-directed mutant strain. Conditions: SDM strain Y188L.
From the text: as §1

Experiment [7] has as its system HIV-1 strain with RT mutations F227C L234I. Briefly: Susceptibility of site-directed mutant strain. Conditions: SDM strain F227C L234I.
From the text: as §1

In experiment [8] the test system is HIV-1 strain with RT mutations K065R M184V. Briefly: Susceptibility of site-directed mutant strain. As to conditions: SDM strain K065R M184V.
From the text: as §1

In experiment [9] the test system is HIV-1 strain with RT mutations K101E K103N. Briefly: Susceptibility of site-directed mutant strain. Conditions: SDM strain K101E K103N.
From the text: as §1

For experiment [10], the system named is HIV-1 strain with RT mutations K103N Y181C. Briefly: Susceptibility of site-directed mutant strain. As to conditions: SDM strain K103N Y181C.
From the text: as §1

Experiment [11] relates to HIV-1 strain with RT mutations L100I K103N E138G V179I Y181C. Briefly: Susceptibility of site-directed mutant strain. As to conditions: SDM strain L100I K103N E138G V179I Y181C.
From the text: as §1

The test system of experiment [12] is HIV-1 strain with RT mutations L100I K103N. Briefly: Susceptibility of site-directed mutant strain. As to conditions: SDM strain L100I K103N.
From the text: as §1

The subject of experiment [13] is HIV-1 strain with RT mutations M041L D067N K070R T215Y. Briefly: Susceptibility of site-directed mutant strain. Conditions: SDM strain M041L D067N K070R T215Y.
From the text: as §1

The subject of experiment [14] is HIV-1 strain with RT mutations T069S ins069-070S-S L210W T215Y. Briefly: Susceptibility of site-directed mutant strain. Conditions: SDM strain T069S ins069-070S-S L210W T215Y.
From the text: as §1

For experiment [15], the system named is HIV-1 strain with RT mutations Y115F M184V. Briefly: Susceptibility of site-directed mutant strain. As to conditions: SDM strain Y115F M184V.
From the text: as §1

Another experiment concerns HIV-2 (ROD). Briefly: Susceptibility of HIV-2 strain.
Another experiment concerns HIV-1 IIIB. Briefly: In vitro selection of viral strains resistant to RT inhibitors in MT4-LTR-EGFP cells. Conditions: NcRTI-1: prolonged exposure (190 days). The source says: To in vitro select viral strains resistant to RT inhibitors, MT4-LTR-EGFP cells were infected in the presence of the inhibitor (at 2 or 3 times EC50). Cultures were passaged every 3 to 4 days at the same concentration of inhibitor, until full virus breakthrough. At that time, virus was harvested and used for a new round of selection at a higher compound concentration. At each breakthrough, the harvested virus was genotyped to identify acquired mutations. For several RT inhibitors, alone or in combination, the mutations selected when replicating wild type HIV-1 (IIIB) in their presence, were determined (see Table 3).

A further experiment has as its system clinical HIV-1 isolates. Briefly: Susceptibility of recombinant clinical HIV-1 isolates to RT inhibitors (fold change in EC50). How it is done: The susceptibility of over 6000 recent clinical HIV-1 isolates for NcRTI-1 and different N(t)RTIs and NNRTIs was assessed.
Recombinant HIV-1 viruses, derived from clinical samples, were constructed by cotransfection of MT4 cells with sample derived viral protease and RT coding sequences and an HIV-1 HXB2-derived proviral clone deleted in the protease and RT coding region^2.

Experiment [16] relates to HIV-1 strain with RT mutations A62V V75I F77L F116Y Q151M. Briefly: Susceptibility of site-directed mutant strain. Conditions: SDM strain A62V V75I F77L F116Y Q151M.
From the text: as §1

Setting [17] is: over 6000 recent clinical HIV-1 isolates.

Structures are written as SMILES. Several values for one entry are separate records, joined by “and”; a condition that tells them apart may be missing. Equal values may be shown once. Where a name gives a salt, the structure may show the parent alone.

`Nc1ccn([C@@H]2CS[C@H](CO)O2)c(=O)n1` [3TC, lamivudine]: the Fold change in experiment [1] is on record as greater than 20; in [2], 1.1; in experiment [3], greater than 100; in [4] it was 0.7; in [5], 1.1; in experiment [6] it was 1.9. Moreover, the Fold change is given as 1.1 in [7]; greater than 100 in [8]; 1.3 in [9]; 0.9 in experiment [10]; 0.7 in experiment [11]; 0.5 in experiment [12]. The Fold change in experiment [13] is reported as 8.1; in experiment [14], 9.5; in experiment [15], greater than 100; with HIV-2 (ROD), 0.6.
With `Nc1nc(=O)n([C@@H]2CS[C@H](CO)O2)cc1F` [FTC, emtricitabine], the “selection of the K65R mutation when combined with TDF” value with HIV-1 IIIB is reported as “the K65R mutation was selected”.
Regarding `Cc1ccnc2c1NC(=O)c1cccnc1N2C1CC1` [NVP, nevirapine], the Fold change in experiment [1] was 3.4; in experiment [2] it was 50; in experiment [3], 2.3; in experiment [4], 2.9; in [5] it was greater than 100; in [6] it was greater than 100. The Fold change in experiment [7] is reported as 31; in [8] it was 1.2; in [9], greater than 100; in [10], greater than 100; in experiment [11] it was greater than 100; in experiment [12] it was greater than 100. Moreover, the Fold change in experiment [13] was 2.8; in [14] it was 1.1; in experiment [15] it was 2.3; in the experiment on HIV-2 (ROD) it was greater than 100.
Consider `Cn1c2ccccc2c2c1cc(C#N)c(=O)n2-c1ccc([N+](=O)[O-])cc1` [NcRTI-1, 5-Methyl-1-(4-nitro-phenyl)-2-oxo-2,5-dihydro-1H-pyrido[3,2-b]indole-3-carbonitrile], for which the “effect of NNRTI resistance mutations and N(t)RTI multi-drug resistant patterns (TAMs, T69 insertion complex, Q151M complex) on activity” value with clinical HIV-1 isolates was “not affected”. In addition, the “cross-resistance with the NNRTIs EFV or NVP and the N(t)RTIs ZDV, TDF, ABC” value in the experiment with clinical HIV-1 isolates (clinical HIV-1 isolates) is listed as “No cross-resistance was observed”. In addition, the “effect of the K65R mutation on susceptibility” value in the experiment on clinical HIV-1 isolates (clinical isolates with K65R) is listed as “hypersusceptibility”. In the experiment with clinical HIV-1 isolates (clinical isolates with combination of mutations M184V+Y115F, random set of more than 1700 isolates), the “FC (fold change in EC50)” value is 75. For the same compound, the “profiled clinical isolates showing resistance (FC>10)” value in the experiment with clinical HIV-1 isolates (setting [17]) was found to be 2.3%. In addition, in the experiment on clinical HIV-1 isolates (setting [17]), the “profiled clinical isolates that remained susceptible (fold change in EC50 (FC)<4)” value came to 82%. Besides, the “profiled clinical isolates with reduced susceptibility (FC4-10)” value in the experiment on clinical HIV-1 isolates (setting [17]) came to 15.7%. In addition, the Fold change is 0.46 and 0.5 in experiment [1]; 1.9 in experiment [2]; 5.0 in experiment [3]; 7.9 in experiment [4]; 2.3 in experiment [5]; 1.7 in experiment [6]. Besides, the Fold change in experiment [16] is 1.0; in experiment [7] it was 2.0; in experiment [8], 0.89 and 0.9; in [9] it was 2.1; in experiment [10], 2.1; in experiment [11], 2.5. Also, the Fold change was 2.6 in experiment [12]; 3.8 in experiment [13]; 0.9 in [14]; 75 in [15]; 14 with HIV-2 (ROD). For the same compound, the “selection of the K65R mutation when combined with TDF” value with HIV-1 IIIB is on record as “did not result in selection of the K65R mutation”.
On to `CC(C)OC(=O)OCOP(=O)(CO[C@H](C)Cn1cnc2c(N)ncnc21)OCOC(=O)OC(C)C` [TDF, tenofovir disoproxil fumarate], for which the Fold change in [1] came to 6.0; in experiment [2], 0.6; in [3] it was 0.8; in [4] it was 1.0; in [5], 0.7; in experiment [6] it was 0.7. Besides, the Fold change is reported as 3.7 in experiment [16]; 0.6 in experiment [7]; 2.3 in experiment [8]; 0.5 in experiment [9]; 0.5 in experiment [10]; 0.4 in [11]. In addition, the Fold change in experiment [12] worked out at 0.3; in experiment [13], 3.3; in [14], 2.3; in experiment [15] it was 0.9; in the experiment on HIV-2 (ROD), 1.0.
The compound `Cc1cn([C@H]2C[C@H](N=[N+]=[N-])[C@@H](CO)O2)c(=O)[nH]c1=O` [ZDV, zidovudine] had a Fold change in the experiment with HIV-2 (ROD) of 0.1.

Source of the values: patent publication US20090012046A1, “Methods of Treating Mutated Hiv” (priority 2006, published 2009).
